From ChEMBL document CHEMBL3045193, “Synthesis and Herbicidal Activity of 1H-2, 3-Benzoxazine Derivatives” (J Pestic Sci, 2002)

Experiments:
Digitaria ciliaris [1] = assay: Herbicidal activity against Digitaria ciliaris assessed as killing at 2 kg/ha; format: functional
Echinochloa crus-galli [2] = assay: Herbicidal activity against Echinochloa crus-galli (barnyard grass) assessed as killing at 2 kg/ha; format: functional
Gossypium hirsutum [3] = assay: Toxicity in Gossypium hirsutum (cotton) assessed as killing at 1 kg/ha by crop selectivity assay; format: organism-based; details: in vivo
Glycine max [4] = assay: Toxicity in Glycine max (soybean) assessed as killing at 1 kg/ha by crop selectivity assay; format: organism-based; details: in vivo
Amaranthus viridis [5] = assay: Herbicidal activity against Amaranthus viridis assessed as killing at 1 kg/ha; format: functional
Digitaria ciliaris [6] = assay: Herbicidal activity against Digitaria ciliaris assessed as killing at 1 kg/ha; format: functional
Persicaria lapathifolia [7] = assay: Herbicidal activity against Persicaria lapathifolia assessed as killing at 1 kg/ha; format: functional
Echinochloa crus-galli [8] = assay: Herbicidal activity against Echinochloa crus-galli (barnyard grass) assessed as killing at 1 kg/ha; format: functional
Gossypium hirsutum [9] = assay: Toxicity in Gossypium hirsutum (cotton) assessed as killing at 2 kg/ha by crop selectivity assay; format: organism-based; details: in vivo
Triticum aestivum [10] = assay: Toxicity in Triticum aestivum (wheat) plant assessed as killing at 2 kg/ha by crop selectivity assay; format: organism-based; details: in vivo
Glycine max [11] = assay: Toxicity in Glycine max (soybean) assessed as killing at 2 kg/ha by crop selectivity assay; format: organism-based; details: in vivo
Amaranthus viridis [12] = assay: Herbicidal activity against Amaranthus viridis assessed as killing at 2 kg/ha; format: functional
Persicaria lapathifolia [13] = assay: Herbicidal activity against Persicaria lapathifolia assessed as killing at 2 kg/ha; format: functional
Triticum aestivum [14] = assay: Toxicity in Triticum aestivum (wheat) plant assessed as killing at 1 kg/ha by crop selectivity assay; format: organism-based; details: in vivo

| SMILES | Activity (Digitaria ciliaris [1]) | Activity (Echinochloa crus-galli [2]) | Activity (Amaranthus viridis [12]) | Activity (Persicaria lapathifolia [13]) | other results |
| --- | --- | --- | --- | --- | --- |
| Clc1ccc(C2=NOCc3ccccc32)cc1Cl | 100% | 80% |  |  |  |
| Fc1ccc(C2=NOCc3ccc(Cl)cc32)cc1Cl | 100% | 90% |  |  |  |
| Fc1ccc2c(c1)C(c1ccc(F)c(Cl)c1)=NOC2 | 100% | 60% |  |  |  |
| Clc1cccc(C2=NOCc3ccccc32)c1Cl | 0% | 0% |  |  |  |
| Fc1ccc(C2=NOCc3cc(Cl)ccc32)cc1Cl | 60% | 0% |  |  |  |
| Fc1ccc2c(c1)C(c1ccc(F)c(Br)c1)=NOC2 | 100% | 100% | 100% | 80% | Activity (Gossypium hirsutum [3]): 0%; Activity (Glycine max [4]): 0%; Activity (Amaranthus viridis [5]): 80%; Activity (Digitaria ciliaris [6]): 100%; Activity (Persicaria lapathifolia [7]): 60%; Activity (Echinochloa crus-galli [8]): 100%; Activity (Gossypium hirsutum [9]): 0%; Activity (Triticum aestivum [10]): 20%; Activity (Glycine max [11]): 0% |
| Cn1ccnc1C1=NOCc2ccccc21 | 0% | 0% | 0% | 0% |  |
| Fc1ccc2c(c1)CON=C2c1ccc(F)c(Br)c1 | 100% | 20% |  |  |  |
| O=[N+]([O-])c1cccc(C2=NOCc3ccccc32)c1 | 60% | 40% |  |  |  |
| Fc1cc(C2=NOCc3ccccc32)ccc1Cl | 90% | 60% |  |  |  |
| CCCCCCCC(=O)Oc1c(I)cc(C#N)cc1I [IOXYNIL OCTANOATE] | 80% | 90% | 100% | 90% | Activity (Gossypium hirsutum [3]): 0%; Activity (Glycine max [4]): 0%; Activity (Triticum aestivum [14]): 0%; Activity (Amaranthus viridis [5]): 100%; Activity (Digitaria ciliaris [6]): 80%; Activity (Persicaria lapathifolia [7]): 90%; Activity (Echinochloa crus-galli [8]): 80%; Activity (Gossypium hirsutum [9]): 0%; Activity (Triticum aestivum [10]): 0%; Activity (Glycine max [11]): 20% |
| Cc1cc(C2=NOCc3ccccc32)no1 | 0% | 0% | 0% | 0% |  |
| FC(F)(F)c1cccc(C2=NOCc3ccccc32)c1 | 90% | 70% |  |  |  |
| Brc1cccc(C2=NOCc3ccccc32)c1 | 100% | 80% |  |  |  |
| Clc1cc(C2=NOCc3ccccc32)ccn1 | 60% | 80% | 60% | 60% |  |
| Clc1cc(Cl)cc(C2=NOCc3ccccc32)c1 | 0% | 0% |  |  |  |
| Cc1cccc(C2=NOCc3ccccc32)c1 | 60% | 40% |  |  |  |
| Fc1ccc(C2=NOCc3ccccc32)cc1F | 80% | 80% |  |  |  |

| SMILES | Activity (Digitaria ciliaris [1]) | Activity (Echinochloa crus-galli [2]) | Activity (Amaranthus viridis [12]) | Activity (Persicaria lapathifolia [13]) | other results |
| --- | --- | --- | --- | --- | --- |
| Clc1ccccc1C1=NOCc2ccccc21 | 0% | 0% | 0% | 0% |  |
| Clc1ccc(Cl)c(C2=NOCc3ccccc32)c1 | 0% | 0% |  |  |  |
| Fc1cccc(C2=NOCc3ccccc32)c1 | 60% | 20% |  |  |  |
| c1ccc(C2=NOCc3ccccc32)cc1 | 20% | 0% |  |  |  |
| Cc1cc(C2=NOCc3ccccc32)on1 | 0% | 0% | 0% | 0% |  |
| Fc1ccc(C2=NOCc3ccccc32)cc1Cl | 100% | 100% | 90% | 100% | Activity (Gossypium hirsutum [3]): 0%; Activity (Glycine max [4]): 0%; Activity (Amaranthus viridis [5]): 80%; Activity (Digitaria ciliaris [6]): 100%; Activity (Persicaria lapathifolia [7]): 100%; Activity (Echinochloa crus-galli [8]): 100%; Activity (Gossypium hirsutum [9]): 20%; Activity (Triticum aestivum [10]): 20%; Activity (Glycine max [11]): 0% |
| Fc1ccc2c(c1)CON=C2c1ccc(F)c(Cl)c1 | 100% | 50% |  |  |  |
| Fc1ccc(C2=NOCc3ccccc32)cc1C(F)(F)F | 100% | 90% |  |  |  |
| Clc1cccc(C2=NOCc3ccccc32)c1 | 100% | 90% | 60% | 60% |  |
| Clc1ccc(C2=NOCc3ccccc32)s1 | 40% | 20% | 20% | 20% |  |
| Oc1cccc(C2=NOCc3ccccc32)c1 | 0% | 0% |  |  |  |
| Fc1ccc(C2=NOCc3c(F)cccc32)cc1Cl | 100% | 60% |  |  |  |
| N#Cc1cccc(C2=NOCc3ccccc32)c1 | 40% | 20% |  |  |  |
| COc1cccc(C2=NOCc3ccccc32)c1 | 20% | 0% |  |  |  |
| Clc1ccc(C2=NOCc3ccccc32)cc1 | 20% | 40% | 20% | 0% |  |
| Fc1ccc(C2=NOCc3c(Cl)cccc32)cc1Cl | 0% | 0% |  |  |  |
| Fc1ccc(C2=NOCc3ccccc32)cc1Br | 100% | 100% |  |  |  |
| Ic1cccc(C2=NOCc3ccccc32)c1 | 60% | 60% |  |  |  |
